Results: PubChem BioAssay (NCI)
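Step 1: Grow cells in 96-well plates. Step 2: Expose to compound for 48 hours at 5 concentrations. Step 3: Interpolate endpoints linearly; if unreached, use highest concentration. TGI: concentration producing complete growth inhibition.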

Tests used:
Assay in all cases: growth of human tumour cells (NCI), 48 h
[1] = tested on: ACHN renal
[2] = tested on: CAKI-1 renal
[3] = tested on: CCRF-CEM leukemia
[4] = tested on: EKVX NSCLC
[5] = tested on: HL-60(TB) leukemia
[6] = tested on: HT29 colon
[7] = tested on: M14 melanoma
[8] = tested on: OVCAR-5 ovarian
[9] = tested on: SN12C renal
[10] = tested on: UACC-62 melanoma

| Compound | TGI [1] [µM] | TGI [2] [µM] | TGI [3] [µM] | TGI [4] [µM] | TGI [5] [µM] | TGI [6] [µM] | TGI [7] [µM] | TGI [8] [µM] | TGI [9] [µM] | TGI [10] [µM] |
| --- | --- | --- | --- | --- | --- | --- | --- | --- | --- | --- |
| Cc1cc2nc(N3C(=O)/C(=C/c4ccc(Cl)cc4)N=C3c3ccccc3)sc2cc1C | > 100 | > 100 | 38.7 | 91.2 | 51.7 | 63.2 | > 100 | 92.7 | 87.6 | > 100 |
| C=C(C(=O)OC)c1cc2ccccc2n1S(=O)(=O)c1ccccc1 | 5.89 | 2.4 | 4.18 | 37.7 | 10.2 | 24.9 | 9.55 | 21.7 | 8.18 | 15 |
| CCCCCCCCCCCCCCCCCCOCC(COP(=O)([O-])OCC[N+](C)(C)C)OC (stereo not given) | > 100 | 44.3 | 28 | 70.3 | 13.6 | 23.5 | > 63.5 | 37 | 34.6 | 47.1 |
| Clc1nc(Cl)c(CBr)c(Cl)n1 | 15.7 | 23.3 | 3.41 | 48.9 | > 100 | 32.9 | 8.38 | 15 | 6.79 | 11.4 |
| O=C1ON=C2C3CC4CC12CC1(C3)C(=O)ON=C41 | > 100 | > 100 | > 100 | > 100 | > 100 | > 100 | > 100 | > 100 | > 100 | > 100 |
| CCOC(=O)Cn1c(=O)c2cc(-c3ccccc3)cc3c(Cl)nc4c(OC)c(OC)cc1c4c32 | > 65.5 | > 100 | > 56.9 | > 59.2 | 27.4 | 48.1 | 32.9 | > 100 | > 100 | 30.4 |
| O=C1CCCC2=C1CC1=C(CCCC1=O)N2c1ccccc1 | > 100 | > 100 | > 100 | > 100 | > 100 | > 100 | > 100 | > 100 | > 100 | > 100 |
| CCOC(=O)C(C(=O)OCC)=C1NC2(c3ccccc3Nc3ccc(C)cc32)C(C(=O)OC)S1 (stereo not given) | > 100 | > 100 | > 100 | 80.9 | > 100 | > 100 | > 100 | > 100 | 18.2 | > 100 |
| Oc1cccc(-c2cn3cc(C(F)(F)F)ccc3n2)c1 | > 100 | > 100 | 77.5 | 70.9 | > 100 | 60.8 | > 100 | > 100 | > 100 | > 100 |
| COC(=O)[C@H](Cc1ccccc1)NP(=O)(O)OCC1C=CC(n2cc(C)c(=O)[nH]c2=O)O1 (stereo not given in full) | 62.6 | > 100 | > 100 | > 100 | > 100 | > 100 | > 100 | > 100 | > 100 | > 100 |
| CC(C)C1CC[C@H](C)C[C@@H]1OC(=O)C(C(=O)O[C@H]1C[C@@H](C)CCC1C(C)C)C(O)[C@@H]1OC(C)(C)O[C@H]1C1COC(C)(C)O1 (stereo not given in full) | 32 | 34.6 | 50.2 | 41.8 | 42.2 | 32.2 | 37.8 | 31.9 | 30 | 40.5 |
| CC(=O)OCC1OC(O/C=C(\CN=[N+]=[N-])C(C)=O)C(OC(C)=O)C(OC(C)=O)C1OC(C)=O (stereo not given) | 12.4 | 10.1 | 3.59 | 34.7 | 5.27 | 27.2 | 23.1 | 32.9 | 29.5 | 25.3 |
| Nc1ccc(Oc2ccc(C34CC5CC6C3CC3CC4C(C5)C6(c4ccc(Oc5ccc(N)c(O)c5)cc4)C3)cc2)cc1O | 14.3 | 27.7 | 40.3 | 22.2 | 3.27 | > 34.7 | 8.71 | > 39.5 | 11.4 | 26.3 |
| CC(NC(=O)C(N)CC(=O)O)NC(=O)N(C)C(C)(C)C (stereo not given) | > 100 | > 100 | > 100 | > 100 | > 100 | > 100 | > 100 | > 100 | > 100 | > 100 |
| C#CC(O)/C=C/C(O)CCCC(O)CC#CC(O)C#CC(O)CCCC(O)/C=C/CCCC(=O)CCCCCCCCCCCCCCCC(O)C(O)C#CC(=O)O (stereo not given) | > 50 | > 50 | 36.3 | > 50 | 27.4 | > 50 | > 50 | > 50 | > 50 | > 50 |
| N#Cc1ccc(Oc2nc3ccc(C(F)(F)F)cc3nc2-c2ccccc2)cc1 | 28.4 | 44.3 | 44.7 | 32.5 | 46.3 | 34.5 | 29.7 | 26.2 | 40.9 | > 100 |
| CC(C)(C)c1ccc(C(C)(C)C)c(N2C(=O)C3ON=C(c4ccc([N+](=O)[O-])cc4)C3C2=O)c1 (stereo not given) | > 25 | > 25 | > 25 | > 25 | > 25 | > 25 | > 25 | > 25 | > 25 | > 25 |
| CCc1nc2ccc(C(F)(F)F)cc2[nH]c1=O | > 100 | > 100 | > 100 | > 100 | > 100 | > 100 | > 100 | > 100 | > 100 | > 100 |
| O=C1c2ccccc2C(=O)c2c(O)ccc(O)c21 | > 100 | > 100 | > 100 | > 100 | > 100 | > 100 | > 100 | > 100 | > 100 | > 100 |
| Cc1ccc(C(=O)Nc2ccc(S(=O)(=O)O)c3cc(S(=O)(=O)O)cc(S(=O)(=O)O)c23)cc1NC(=O)c1cccc(NC(=O)Nc2cccc(C(=O)Nc3cc(C(=O)Nc4ccc(S(=O)(=O)O)c5cc(S(=O)(=O)O)cc(S(=O)(=O)O)c45)ccc3C)c2)c1 (tested in a mixture with another compound) | > 50 | > 50 | > 50 | > 50 | > 50 | > 50 | > 50 | > 50 | > 50 | > 50 |
| CCN(CC)CCCOc1cc2c(cc1OC)C(=O)N1CCC[C@H]1C=N2 | > 100 | 44.3 | 87.5 | > 100 | > 100 | 39.5 | > 100 | > 100 | > 100 | 54.3 |
| COC(=O)c1cc(C(=CCC[C@H]2CC[C@@]3(C)C(CCC4C3CC[C@@]3(C)C4CC[C@@H]3C(C)CCCC(C)C)C2)c2cc(Cl)c(OC(=O)c3ccccc3)c(C(=O)OC)c2)cc(Cl)c1OC(=O)c1ccccc1 (stereo not given in full) | > 10 | > 10 | > 10 | > 10 | > 10 | > 10 | > 10 | > 10 | > 10 | > 10 |
| CC1(CC2=C(C(=O)NCCO[Si](C)(C)C(C)(C)C)C3(OCCO3)C2=O)OCCO1 | > 100 | > 100 | > 100 | > 100 | > 100 | > 100 | > 100 | > 100 | > 100 | > 100 |
| Cn1c(=O)c2c(nc(Nc3ccc(Cl)cc3)n3c(=O)n(-c4ccccc4)c(=O)n23)n(C)c1=O | > 100 | > 100 | > 100 | > 100 | > 100 | > 100 | > 100 | > 100 | > 100 | > 100 |
| Clc1c(C(Cl)(Cl)Cl)nsc1N1CCCCC1 | > 100 | 55.2 | 40.5 | 79.7 | 48.2 | 38.3 | 56.4 | > 100 | 80.9 | > 100 |
| C(=C\c1cc(-c2ccc3ccccc3n2)nc2ccc3ccccc3c12)/c1ccc2ccccc2n1 | > 100 | > 100 | > 100 | > 100 | > 100 | > 100 | > 100 | > 100 | > 100 | > 100 |
| C[C@]1(O)O[C@@H]2OCC[C@@H]2C2=C1C(=O)c1ccccc1C2=O | 31.7 | 34.7 | 51.2 | 37.1 | 33.2 | > 100 | 24.1 | 32.4 | 51.1 | 39.5 |
| NC(=O)c1nnsc1NC=O | > 100 | > 100 | > 100 | > 100 | > 100 | > 100 | > 100 | > 100 | > 100 | > 100 |
| Oc1ccc(O)c(CNc2ccccc2)c1 | 25.5 | 23.1 | > 100 | 43.4 | 12.8 | > 100 | 33.7 | 41.7 | 29.2 | 30.6 |
